Assay results published in patent publication US20240382448A1, “METHODS FOR TREATING CORONAVIRUS INFECTION” (priority 2021, published 2024).
Where two headings read alike, the source gives them in different places.

Tests used:
[1] = test system: SARS-CoV-2 (isolate USA WA1/2020); type: cell-based; details: Calu3 cells, 2 h pretreatment, MOI=0.5, 48 h post-infection, compared to DMSO control
[2] = test system: Calu3 (ATCC, HTB-55) cells; details: average of three replicates, (sample well/aggregated DMSOavg)*100

Compound	% Infection ([1]; 0.02 μM) [%]	% Infection ([1]; 0.07 μM) [%]	% Infection ([1]; 0.21 μM) [%]	% Infection ([1]; 0.62 μM) [%]	% Infection ([1]; 1.85 μM) [%]	% Infection ([1]; 5.56 μM) [%]	% Infection ([1]; 16.67 μM) [%]	% Infection ([1]; 50.00 μM) [%]	Viability ([2]; 0.02 μM)	Viability ([2]; 0.07 μM)	Viability ([2]; 0.21 μM)	Viability ([2]; 0.62 μM)	Viability ([2]; 1.85 μM)	Viability ([2]; 5.56 μM)	Viability ([2]; 16.67 μM)	Viability ([2]; 50.00 μM)
C[C@H]1[C@@H](O)O[C@@H]2O[C@@]3(C)CC[C@H]4[C@H](C)CC[C@@H]1[C@@]24OO3 [Dihydroartemisinin]	76.6	103.6	73.6	23.0	13.5	7.0	12.8	2.0	–	–	–	–	–	–	–	–
COc1cc(-c2oc3cc(O)cc(O)c3c(=O)c2O)ccc1O [Isorhamnetin]	93.6	79.5	103.8	60.4	83.8	5.3	7.9	–	99.6	99.6	99.4	98.8	101.0	99.8	83.7	73.0
C[C@H]1[C@H](OC(=O)CCC(=O)O)O[C@@H]2O[C@@]3(C)CC[C@H]4[C@H](C)CC[C@@H]1[C@@]24OO3 [Artesunate]	110.9	90.0	80.7	44.7	18.0	14.7	16.1	4.7	95.4	102.6	100.5	97.7	95.1	92.9	91.1	78.3
